30 compounds from PubChem BioAssay (NCI) can be followed below.

In general, TGI refers to the concentration giving total growth inhibition. Read a low TGI as more potent growth arrest. By GI50 is commonly meant the concentration at which growth is held to half of that of the control.

Holding throughout (experiment): DTP human tumour cell line panel, 48 h
Assay [1] relates to SF-539 CNS.
In assay [2] the test system is SW-620 colon.
Assay [3] has as its system HL-60(TB) leukemia.
The test system of assay [4] is UACC-62 melanoma.
For assay [5], the system named is MOLT-4 leukemia.
Assay [6] relates to SF-295 CNS.
In assay [7] the test system is SNB-75 CNS.
The subject of assay [8] is HCT-116 colon.
The test system of assay [9] is UACC-257 melanoma.

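A five-concentration, 48-hour dose response in 96-well plates underlies each endpoint, interpolated linearly between surrounding concentrations. GI50 = concentration required for 50% inhibition of growth. TGI marks complete inhibition of growth.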

As for `O=C(N/C(=C\c1ccc([N+](=O)[O-])cc1)c1nc2ccc(Cl)cc2[nH]1)c1ccccc1`, the TGI in assay [1] came out at 40.7 µM; in [2] it was 61.3 µM; in [3] it was 48.5 µM; in [4], 50.1 µM; in assay [5] it was 54 µM; in [6], 63.8 µM.
For the compound `CC(C(=O)c1ccccc1)C1(O)C(=O)Nc2ccccc21` (centres undefined), the TGI in [1], in assay [7], in assay [8], in [2], in assay [9] and in assay [4] was over 100 µM each time. Further, the TGI in [5] and in [6] was over 100 µM each time.
`O=S1c2ccccc2N=C(c2ccc(Cl)cc2)CC1c1cccs1` (centres undefined): the TGI in assay [1] is 32.5 µM; in [7], over 100 µM; in assay [8], 24.3 µM; in [2], 27.5 µM; in assay [9], 63.5 µM; in [3] it was 45.1 µM. Also, the TGI in assay [4] turned out to be 64.1 µM; in assay [5], 98.7 µM; in assay [6] it was 39.5 µM.
On to `S=P(c1ccccc1)(c1ccccc1)C1(C2(P(=S)(c3ccccc3)c3ccccc3)CC2)CC1`, for which the TGI in [1], in assay [7], in [8], in assay [2], in [4] and in [5] was over 100 µM in each case. In addition, the TGI in [6] was over 100 µM.
As to `CC(Oc1ccc(OCC2CCCCC2)cc1)C(=O)O` (centres undefined), the concentration for total growth inhibition (TGI) in [1], in [7], in [8], in [2], in assay [9] and in [3] was over 100 µM each time. Besides, the TGI in [4], in assay [5] and in assay [6] was over 100 µM in each case.
In the case of `C[C@]12CC(C#N)C(=O)C(O)=C1CC[C@@H]1C2CC[C@@]2(C)C1CC[C@@H]2O` (some centres undefined), the TGI in [1] was over 100 µM; in assay [7], 63.1 µM; in assay [8], over 100 µM; in [2] it was over 100 µM; in assay [9], over 100 µM; in assay [3] it was over 100 µM. The TGI was 83.8 µM in [4], over 100 µM in [5] and over 100 µM in [6].
Regarding `COc1cc2ccc(/C(C)=N/OC(C)=O)cc2cc1OC`, the TGI in assay [1] was over 100 µM; in assay [7], 40.9 µM; in [8] it was over 100 µM; in [2] it was over 100 µM; in assay [9], over 100 µM; in assay [4], over 100 µM. The TGI in assay [5] and in [6] was over 100 µM each time.
As to `CCN(CC)CCOC(=O)/C(=C/c1ccc(OC)cc1)c1cc(OC)c(OC)c(OC)c1`, the TGI is 10.8 µM in assay [1]; 11.6 µM in [7]; over 100 µM in [8]; over 100 µM in assay [2]; 19.3 µM in assay [9]; 16.4 µM in assay [3]. In addition, the TGI in assay [4] is 24.1 µM; in assay [5], over 100 µM; in assay [6], 6.3 µM.
In the case of `c1ccc2c(c1)nnn2CNc1ccc(N2CCOCC2)cc1`, the TGI in assay [1], in [7], in [8], in assay [2], in [9] and in [3] was over 100 µM in each case. For the same compound, the TGI in [4], in assay [5] and in assay [6] was over 100 µM throughout.
Turning to `CCCC1C(=O)C(CC)Cc2c(OC)ccc(OC)c21` (centres undefined), the total growth inhibition concentration (TGI) in assay [1], in assay [7], in [2], in assay [9], in [3] and in [4] was over 100 µM throughout. Moreover, the TGI in [5] and in assay [6] was over 100 µM in each case.
Regarding `NC1=NC(c2ccccc2)CC(c2cc(Cl)cc(Br)c2O)=N1` (centres undefined), the TGI stood at 25.4 µM in assay [1]; 28.3 µM in assay [7]; 25.8 µM in [8]; 26.2 µM in assay [2]; 36.2 µM in [9]; 13.2 µM in [3]. Moreover, the TGI in assay [4] was 24.6 µM; in assay [5], 11.6 µM; in assay [6], 23.7 µM.
With `COc1cc2ccnc3c2c(c1OC)CC1CC(O)C(OC)CC31` (centres undefined), the TGI was 55.4 µM in assay [1]; over 100 µM in assay [7]; over 100 µM in assay [8]; over 100 µM in assay [2]; over 100 µM in assay [9]; over 100 µM in [3]. In addition, the TGI in assay [4], in assay [5] and in [6] was over 100 µM in each case.
`CC1Cc2c(N)nc(N3CCOCC3)nc2NC1=O` (centres undefined): the TGI in assay [1], in [7], in assay [8], in [2], in [9] and in assay [3] was over 100 µM in each case. The TGI in assay [4], in assay [5] and in assay [6] was over 100 µM each time.
For `Cc1ccc2c(N/N=C\c3ccco3)cc(C)nc2n1`, the GI50 in assay [1] is 2.01 µM; in [7], 11.4 µM; in [8], 2.95 µM; in [2], 3.01 µM; in assay [9], 2.79 µM; in assay [3], 1.99 µM. Also, the GI50 in assay [4] was 1.81 µM; in assay [5], 2.67 µM; in assay [6], 3.31 µM. Also, the TGI in assay [1] was 3.74 µM; in [7], 26.4 µM; in [8] it was 11 µM; in assay [2] it was 11.6 µM; in assay [9], 8.72 µM; in assay [3], 4.07 µM. For the same compound, the TGI in [4] is 3.69 µM; in assay [5], 8.83 µM; in assay [6], 14.3 µM.
Consider `C=CCCC(C)N(C(=O)OC(C)(C)C)S(=O)(=O)c1ccc(C)cc1` (centres undefined), for which the TGI in assay [1], in [7], in assay [8], in assay [2], in [9] and in assay [3] was over 100 µM throughout. In addition, the TGI in assay [4], in assay [5] and in assay [6] was over 100 µM each time.
Turning to `C/C(=N\NS(=O)(=O)c1ccc(C)cc1)c1c(O)cc(C)oc1=O`, the total growth inhibition concentration (TGI) in [1], in assay [7], in assay [8], in assay [2], in assay [9] and in assay [3] was over 100 µM each time. The TGI in assay [4], in [5] and in [6] was over 100 µM throughout.
With `CCOC(=O)CNC1C(NC(C)=O)C(OC)OC2COC(c3ccccc3)OC21` (centres undefined), the TGI in [1], in [7], in [8], in assay [2], in assay [9] and in assay [3] was over 100 µM in each case. For the same compound, the TGI in assay [4] and in [6] was over 100 µM each time.
With `CC1=C(/C=C/C2=CC(=C\C(=O)O)/CC(C3=C(C)CCCC3(C)C)C2)C(C)(C)CCC1` (centres undefined), the TGI is 30.6 µM in assay [1]; 28.8 µM in assay [7]; 37 µM in [8]; 29.1 µM in [2]; 29.5 µM in assay [9]; 23.1 µM in assay [4]. The results for the TGI in assay [5] and in assay [6] were 21.7 µM and 22 µM, respectively.
As to `CC(=O)O[C@H]1CCC2[C@@H]3CCC4Nc5c(cnn5-c5ccccc5)C[C@]4(C)C3CC[C@@]21C` (some centres undefined), the TGI amounted to 54.9 µM in assay [1]; 20.2 µM in assay [7]; 27.5 µM in assay [8]; 31.3 µM in assay [2]; 23.7 µM in [9]; 32.9 µM in assay [3]. The TGI in assay [4] worked out at 22.6 µM; in assay [5] it was 33.7 µM; in [6] it was 10.7 µM.
With `CCCCCCCC(=O)OCC1OC(n2cc(F)c(=O)[nH]c2=O)C(NC(=O)OCc2ccccc2)C(OC(=O)CCCCCCC)C1O` (centres undefined), the TGI in [1] was 74.4 µM; in assay [7], over 100 µM; in [8], over 100 µM; in assay [2], over 100 µM; in assay [9] it was over 100 µM; in [3], 40.8 µM. Moreover, the TGI in assay [4] was 45.7 µM; in assay [5], over 100 µM; in assay [6], over 100 µM.
As for `CCOC(=O)/C(C#N)=C\C=C1/C=CNC2=NCCN21`, the TGI in assay [1], in assay [7], in assay [8], in assay [2], in assay [9] and in assay [3] was over 100 µM in each case. The concentration for total growth inhibition (TGI) in [4], in [5] and in [6] was over 100 µM each time.
`CCC(O)(c1ccc(OC)cc1)C(c1ccc(OCc2ccccc2)cc1)c1ccc(OCc2ccccc2)cc1` (centres undefined): the TGI in assay [1], in [7], in assay [8], in [2], in [9] and in assay [3] was over 100 µM each time. For the same compound, the TGI in assay [4], in assay [5] and in [6] was over 100 µM throughout.
Take `O=C1NC(=O)C(=O)C(c2nc3ccccc3s2)C1=O`: the TGI in assay [1], in [7], in assay [8], in assay [2], in [9] and in assay [3] was over 100 µM each time. Further, the TGI in assay [4], in [5] and in assay [6] was over 100 µM throughout.
`O=C(c1cc2c(C(F)(F)F)onc2c2ccccc12)C(F)(F)F`: the TGI in assay [1] is 15.8 µM; in [7] it was 15.4 µM; in assay [8], 1.03 µM; in assay [2] it was over 100 µM; in [9] it was 47.5 µM; in assay [3], 6.86 µM. Moreover, the figures for the TGI in assay [4], in [5] and in [6] were 17 µM, over 56 µM and over 29.3 µM, respectively.
With `Cc1ccc(C(=O)CCC2C(=O)CC(C)(C)CC2=O)cc1`, the TGI in assay [1], in [7], in assay [8], in [2], in [9] and in [4] was over 100 µM throughout. Further, the TGI in assay [5] and in assay [6] was over 100 µM in each case.
`Cc1ccc(NC(=O)CC/C(CC(=O)c2ccc(Cl)cc2)=N\NC(=O)C(=O)NN)cc1C`: the TGI in [1], in assay [7], in assay [8], in assay [2], in assay [9] and in assay [3] was over 100 µM each time. Besides, the TGI in assay [4], in assay [5] and in [6] was over 100 µM in each case.
On to `N#CC(C(=O)CCC(=O)Nc1ccc(Cl)cc1)c1ccccc1Cl` (centres undefined), for which the TGI in assay [1], in assay [7], in assay [8], in [2], in [9] and in [3] was over 100 µM in each case. Also, the TGI in assay [4], in [5] and in assay [6] was over 100 µM each time.
For `CC([C@H]1CCC2C3CCC4CC5(CC[C@]4(C)C3CC[C@@]21C)c1ccccc1C(=O)N5C)N(C)C` (some centres undefined), the TGI is 71.8 µM in assay [1]; 74.1 µM in assay [7]; over 100 µM in assay [8]; over 100 µM in assay [2]; 46.3 µM in assay [3]; 73 µM in [4]. Besides, the TGI in assay [5] was 91.7 µM; in [6], 48.5 µM.
With `O=C(COc1ccc(Cl)cc1)N1N=C(c2ccc([N+](=O)[O-])o2)CC1(O)c1ccccc1` (centres undefined), the TGI in [1] worked out at 26.9 µM; in assay [8] it was 17.9 µM; in assay [2] it was 21.5 µM; in assay [9], 15.6 µM; in [3], 12 µM; in assay [4], 19.7 µM. Further, the results for the TGI in assay [5] and in assay [6] were 47.3 µM and 22.6 µM, respectively.
Consider `O=C(O)CN(c1ccccc1)S(=O)(=O)c1ccc(Cl)cc1`, for which the TGI in assay [1], in [7], in [2], in assay [9], in [3] and in [4] was over 100 µM in each case. Also, the TGI in [5] was over 100 µM.
